In PubChem BioAssay AID1919000 (Molecular Pharmacology Branch, DTP, NCI, 2023):
pIC50: −log10 of the molar value. “And” between values parts separate entries of the source, which are not always exact repeats. Identical values can stand only once. One block for each molecule: values may come before it.

Tested on: 653999-131-R-J2-PDC complex spheroids, growth % test/control
Assay: Anticancer human tumor 653999-131-R-J2-PDC patient-derived lung adenocarcinoma cell line growth inhibition [AhR]
Conditions: for viability, T/C: stronger effect = lower value
Method in brief: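 Agents were dosed in half-log steps down from roughly clinical Cmax, or from 10 microM where Cmax was unknown, alone and with AhR antagonists. Read-out: percent test/control growth of tumor spheroids containing HUVEC and MSC stromal cells.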

[1] = curve of first compound, second compound 0.1 µM
[2] = curve of first compound, second compound 0.316 µM
[3] = curve of first compound, second compound 1 µM
[4] = curve of first compound, second compound 3.16 µM
[5] = curve of first compound, second compound 10 µM
[6] = second compound 0.1 µM, first compound 0.0316 µM
[7] = second compound 0.1 µM, first compound 0.1 µM
[8] = second compound 0.1 µM, first compound 0.316 µM
[9] = second compound 0.1 µM, first compound 1 µM
[10] = second compound 0.1 µM, first compound 3.16 µM
[11] = second compound 0.1 µM, first compound 10 µM
[12] = second compound 0.316 µM, first compound 0.0316 µM
[13] = second compound 0.316 µM, first compound 0.1 µM
[14] = second compound 0.316 µM, first compound 0.316 µM
[15] = second compound 0.316 µM, first compound 1 µM
[16] = second compound 0.316 µM, first compound 3.16 µM
[17] = second compound 0.316 µM, first compound 10 µM
[18] = second compound 1 µM, first compound 0.0316 µM
[19] = second compound 1 µM, first compound 0.1 µM
[20] = second compound 1 µM, first compound 0.316 µM
[21] = second compound 1 µM, first compound 1 µM
[22] = second compound 1 µM, first compound 3.16 µM
[23] = second compound 1 µM, first compound 10 µM
[24] = second compound 3.16 µM, first compound 0.0316 µM
[25] = second compound 3.16 µM, first compound 0.1 µM
[26] = second compound 3.16 µM, first compound 0.316 µM
[27] = second compound 3.16 µM, first compound 1 µM
[28] = second compound 3.16 µM, first compound 3.16 µM
[29] = second compound 3.16 µM, first compound 10 µM
[30] = second compound 10 µM, first compound 0.0316 µM
[31] = second compound 10 µM, first compound 0.1 µM
[32] = second compound 10 µM, first compound 0.316 µM
[33] = second compound 10 µM, first compound 1 µM
[34] = second compound 10 µM, first compound 3.16 µM
[35] = second compound 10 µM, first compound 10 µM
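Note: spheroids exposed to agents for seven days.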
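Throughout, for viability, T/C: 100% = DMSO vehicle control viability.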

pIC50 [1]: 6.87
pIC50 [2]: 6.91
pIC50 [3]: 6.84
pIC50 [4]: 6.78
pIC50 [5]: 6.88
SMILES: COc1cccc2c1C(=O)c1c(O)c3c(c(O)c1C2=O)CC(O)(C(=O)CO)CC3OC1CC(N)C(O)C(C)O1 (configuration not stated) + CC(CO)NC(=O)c1cc(-c2ccc(Cl)cc2)nn(-c2cnn(C)c2)c1=O
viability, T/C [6]: 60.7%
viability, T/C [7]: 53%
viability, T/C [8]: 35%
viability, T/C [9]: 11.7%
viability, T/C [10]: 6.06%
viability, T/C [11]: 19.9%
viability, T/C [12]: 62.3%
viability, T/C [13]: 52.8%
viability, T/C [14]: 31.1%
viability, T/C [15]: 10.4%
viability, T/C [16]: 4.91%
viability, T/C [17]: 20.9%
viability, T/C [18]: 71%
viability, T/C [19]: 57%
viability, T/C [20]: 33%
viability, T/C [21]: 11.2%
viability, T/C [22]: 4.47%
viability, T/C [23]: 18.9%
viability, T/C [24]: 62.9%
viability, T/C [25]: 49.5%
viability, T/C [26]: 42.3%
viability, T/C [27]: 6.87%
viability, T/C [28]: 7.41%
viability, T/C [29]: 20.7%
viability, T/C [30]: 73.4%
viability, T/C [31]: 54.6%
viability, T/C [32]: 31.8%
viability, T/C [33]: 5.67%
viability, T/C [34]: 9.25%
viability, T/C [35]: 21.4%

pIC50 (curve of compound): < 7.00
SMILES: Cn1ncnc1C1c2n[nH]c(=O)c3cc(F)cc(c23)NC1c1ccc(F)cc1 (configuration not stated)
viability, T/C (compound 0.000316 µM): 94.2% and 105% and 97.9%
viability, T/C (compound 0.001 µM): 106% and 102% and 107%
viability, T/C (compound 0.00316 µM): 102% and 103% and 116%
viability, T/C (compound 0.01 µM): 91.6% and 96% and 101%
viability, T/C (compound 0.0316 µM): 94.2% and 95.2% and 105%
viability, T/C (compound 0.1 µM): 95.5% and 91.8% and 103%

pIC50 [1]: < 5.52
pIC50 [2]: < 5.52
pIC50 [3]: < 5.52
pIC50 [4]: < 5.52
pIC50 [5]: < 5.52
SMILES: CCN(c1cc(-c2ccc(CN3CCOCC3)cc2)cc(C(=O)NCc2c(C)cc(C)[nH]c2=O)c1C)C1CCOCC1 + CC(CO)NC(=O)c1cc(-c2ccc(Cl)cc2)nn(-c2cnn(C)c2)c1=O
viability, T/C (second compound 0.1 µM, first compound 0.00949 µM): 112%
viability, T/C (second compound 0.1 µM, first compound 0.03 µM): 97.6%
viability, T/C (second compound 0.1 µM, first compound 0.0949 µM): 120%
viability, T/C (second compound 0.1 µM, first compound 0.3 µM): 95.9%
viability, T/C (second compound 0.1 µM, first compound 0.949 µM): 93.9%
viability, T/C (second compound 0.1 µM, first compound 3 µM): 90%
viability, T/C (second compound 0.316 µM, first compound 0.00949 µM): 119%
viability, T/C (second compound 0.316 µM, first compound 0.03 µM): 107%
viability, T/C (second compound 0.316 µM, first compound 0.0949 µM): 101%
viability, T/C (second compound 0.316 µM, first compound 0.3 µM): 94.6%
viability, T/C (second compound 0.316 µM, first compound 0.949 µM): 101%
viability, T/C (second compound 0.316 µM, first compound 3 µM): 94.1%
viability, T/C (second compound 1 µM, first compound 0.00949 µM): 115%
viability, T/C (second compound 1 µM, first compound 0.03 µM): 134%
viability, T/C (second compound 1 µM, first compound 0.0949 µM): 115%
viability, T/C (second compound 1 µM, first compound 0.3 µM): 114%
viability, T/C (second compound 1 µM, first compound 0.949 µM): 105%
viability, T/C (second compound 1 µM, first compound 3 µM): 102%
viability, T/C (second compound 3.16 µM, first compound 0.00949 µM): 112%
viability, T/C (second compound 3.16 µM, first compound 0.03 µM): 113%
viability, T/C (second compound 3.16 µM, first compound 0.0949 µM): 119%
viability, T/C (second compound 3.16 µM, first compound 0.3 µM): 114%
viability, T/C (second compound 3.16 µM, first compound 0.949 µM): 106%
viability, T/C (second compound 3.16 µM, first compound 3 µM): 99.6%
viability, T/C (second compound 10 µM, first compound 0.00949 µM): 111%
viability, T/C (second compound 10 µM, first compound 0.03 µM): 117%
viability, T/C (second compound 10 µM, first compound 0.0949 µM): 130%
viability, T/C (second compound 10 µM, first compound 0.3 µM): 114%
viability, T/C (second compound 10 µM, first compound 0.949 µM): 105%
viability, T/C (second compound 10 µM, first compound 3 µM): 96.1%

pIC50 [1]: < 5.00
pIC50 [2]: < 5.00
pIC50 [3]: < 5.00
pIC50 [4]: < 5.00
pIC50 [5]: < 5.00
SMILES: COc1cc(Nc2ncc3c(n2)-c2ccc(Cl)cc2C(c2c(F)cccc2OC)=NC3)ccc1C(=O)O + Cc1cncc(-c2nc(NCCc3c[nH]c4ccccc34)c3ncn(C(C)C)c3n2)c1
viability, T/C [6]: 82.1%
viability, T/C [7]: 75.4%
viability, T/C [8]: 66.3%
viability, T/C [9]: 63.3%
viability, T/C [10]: 58.3%
viability, T/C [11]: 55.5%
viability, T/C [12]: 78.7%
viability, T/C [13]: 67.7%
viability, T/C [14]: 66.6%
viability, T/C [15]: 63.2%
viability, T/C [16]: 60.6%
viability, T/C [17]: 54.4%
viability, T/C [18]: 91%
viability, T/C [19]: 78.6%
viability, T/C [20]: 80%
viability, T/C [21]: 68.2%
viability, T/C [22]: 61.9%
viability, T/C [23]: 57.8%
viability, T/C [24]: 96.7%
viability, T/C [25]: 86.4%
viability, T/C [26]: 78.6%
viability, T/C [27]: 73.4%
viability, T/C [28]: 73.1%
viability, T/C [29]: 64.7%
viability, T/C [30]: 65.5%
viability, T/C [31]: 49.9%
viability, T/C [32]: 57.9%
viability, T/C [33]: 49.9%
viability, T/C [34]: 55.5%
viability, T/C [35]: 64.4%
